ChEMBL document CHEMBL5620359, “Discovery of 2,5-disubstituted furan derivatives featuring a benzamide motif for overcoming P-glycoprotein mediated multidrug resistance in MCF-7/ADR cell” (Eur J Med Chem, 2023)

Key:
Format in all cases: functional
[1] = test system: NCI/ADR-RES; experiment: Cytotoxicity against human MCF7ADR cells assessed as cell survival rate at 5 uM incubated for 48 hrs by CCK8 assay relative to control
[2] = test system: MCF7; experiment: Cytotoxicity against human MCF7 cells assessed as cell survival rate at 5 uM incubated for 48 hrs by CCK8 assay relative to control
[3] = test system: NCI/ADR-RES; experiment: Reversal activity against doxorubicin-mediated resistance in human MCF7ADR cells assessed as reversal fold by measuring ratio of doxorubicin IC50 to doxorubicin IC50 in presence of test compound at 5 uM incubated for 48 hrs by CCK8 assay

Row | SMILES | Activity [1] [%] | Activity [2] [%] | fold change (FC) [3]
1 | COc1cc2c(cc1OC)CN(C(=O)c1ccc(-c3ccccc3NC(=O)c3cccc([N+](=O)[O-])c3)o1)CC2 | 66.2 | 67.5 | 6.1
2 | COc1cc2c(cc1OC)CN(C(=O)c1ccc(-c3ccc(NC(=O)c4ccccc4Cl)cc3)o1)CC2 | 82.5 | 65.5 | 66.9
3 | COc1cc2c(cc1OC)CN(C(=O)c1ccc(-c3ccccc3NC(=O)c3ccccc3Cl)o1)CC2 | 96.3 | 66.5 | 29.2
4 | COc1cccc(C(=O)Nc2cccc(-c3ccc(C(=O)N4CCc5cc(OC)c(OC)cc5C4)o3)c2)c1 | 75 | 59.4 | 59.8
5 | COc1cc2c(cc1OC)CN(C(=O)c1ccc(-c3ccc(NC(=O)c4cccc(Cl)c4)cc3)o1)CC2 | 83.3 | 74.8 | 267.6
6 | COc1cc2c(cc1OC)CN(C(=O)c1ccc(-c3ccc(NC(=O)c4ccc(F)cc4)cc3)o1)CC2 | 70.6 | 53.6 | 53.5
7 | COc1cc2c(cc1OC)CN(C(=O)c1ccc(-c3ccc(NC(=O)c4ccc(OC(F)(F)F)cc4)cc3)o1)CC2 | 72.8 | 61.3 | 118.3
8 | COc1cc2c(cc1OC)CN(C(=O)c1ccc(-c3cccc(NC(=O)c4ccccc4)c3)o1)CC2 | 76.1 |  | 45.8
9 | COc1cc2c(cc1OC)CN(C(=O)c1ccc(-c3ccc(NC(=O)c4ccccc4OC)cc3)o1)CC2 | 98.6 | 99.7 | 24.2
10 | COc1ccc(CCN(C)CCCC(C#N)(c2ccc(OC)c(OC)c2)C(C)C)cc1OC (stereo unspecified) | 75 | 99.6 | 
11 | COc1cccc(C(=O)Nc2ccccc2-c2ccc(C(=O)N3CCc4cc(OC)c(OC)cc4C3)o2)c1 | 83 | 81.2 | 26.6
12 | COc1cc2c(cc1OC)CN(C(=O)c1ccc(-c3cccc(NC(=O)c4cccs4)c3)o1)CC2 | 61.4 |  | 46.6
13 | COc1cc2c(cc1OC)CN(C(=O)c1ccc(-c3ccc(NC(=O)c4ccc(Cl)cc4)cc3)o1)CC2 | 79.8 | 50.1 | 124
14 | COc1cc2c(cc1OC)CN(C(=O)c1ccc(-c3cccc(NC(=O)c4cccc(Cl)c4)c3)o1)CC2 | 97.5 | 85.3 | 41
15 | COc1cc2c(cc1OC)CN(C(=O)c1ccc(-c3ccc(NC(=O)c4ccccc4F)cc3)o1)CC2 | 99.2 | 77.1 | 11
16 | COc1cc2c(cc1OC)CN(C(=O)c1ccc(-c3ccc(NC(=O)c4ccc(C#N)cc4)cc3)o1)CC2 | 56.7 | 85.6 | 41
17 | COc1cc2c(cc1OC)CN(C(=O)c1ccc(-c3ccc(NC(=O)c4c(F)c(F)c(F)c(F)c4F)cc3)o1)CC2 | 98.2 | 92.4 | 45.4
18 | COc1cc2c(cc1OC)CN(C(=O)c1ccc(-c3ccccc3NC(=O)c3ccc(Cl)cc3)o1)CC2 | 84.1 | 83 | 24
19 | COc1ccc(CNc2ccc(-c3ccc(C(=O)N4CCc5cc(OC)c(OC)cc5C4)o3)cc2)cc1 | 98.2 | 99.7 | 5.2
20 | COc1cc2c(cc1OC)CN(C(=O)c1ccc(-c3ccccc3NC(=O)c3ccccc3OC)o1)CC2 | 74.5 | 81.2 | 20.8
21 | COc1cc2c(cc1OC)CN(C(=O)c1ccc(-c3cccc(NC(=O)c4cccc([N+](=O)[O-])c4)c3)o1)CC2 | 76.5 | 69.6 | 23
22 | COc1cc2c(cc1OC)CN(C(=O)c1ccc(-c3ccc(NC(=O)c4cccc(F)c4)cc3)o1)CC2 | 78.2 | 75.1 | 19.6

Row | SMILES | Activity [1] [%] | Activity [2] [%] | fold change (FC) [3]
23 | COc1cc2c(cc1OC)CN(C(=O)c1ccc(-c3cccc(NC(=O)c4ccccc4[N+](=O)[O-])c3)o1)CC2 | 62.6 | 73.4 | 19.5
24 | COc1cc2c(cc1OC)CN(C(=O)c1ccc(-c3ccc(NC(=O)c4ccc(N(C)C)cc4)cc3)o1)CC2 | 71.8 | 98.6 | 40
25 | COc1cc2c(cc1OC)CN(C(=O)c1ccc(-c3ccc(NC(=O)c4ccccc4[N+](=O)[O-])cc3)o1)CC2 | 99.5 | 97.8 | 18.6
26 | COc1cc2c(cc1OC)CN(C(=O)c1ccc(-c3cccc(NC(=O)c4ccc([N+](=O)[O-])cc4)c3)o1)CC2 | 99.7 | 99.8 | 32.6
27 | COc1ccc(C(=O)Nc2cccc(-c3ccc(C(=O)N4CCc5cc(OC)c(OC)cc5C4)o3)c2)cc1 | 62.1 | 32.4 | 72.6
28 | COc1cc2c(cc1OC)CN(C(=O)c1ccc(-c3cccc(NC(=O)c4ccccc4Cl)c3)o1)CC2 | 80.8 | 67.3 | 32.8
29 | COc1cc2c(cc1OC)CN(CCc1ccc(NC(=O)c3cc(OC)c(OC)cc3NC(=O)c3cnc4ccccc4c3)cc1)CC2 | 46.7 | 80.7 | 221.1
30 | COc1ccc(C(=O)Nc2ccc(-c3ccc(C(=O)N4CCc5cc(OC)c(OC)cc5C4)o3)cc2)c(OC)c1 | 66.7 | 63.7 | 36.8
31 | COc1cc2c(cc1OC)CN(C(=O)c1ccc(-c3ccc(NC(=O)c4ccc([N+](=O)[O-])cc4)cc3)o1)CC2 | 82.2 | 68.9 | 50.9
32 | COc1ccc(C(=O)Nc2cccc(-c3ccc(C(=O)N4CCc5cc(OC)c(OC)cc5C4)o3)c2)c(OC)c1 | 64.9 | 84.7 | 17.5
33 | COc1ccc(S(=O)(=O)N(c2ccc(-c3ccc(C(=O)N4CCc5cc(OC)c(OC)cc5C4)o3)cc2)S(=O)(=O)c2ccc(OC)cc2)cc1 | 94.6 | 92.6 | 21.9
34 | COc1cc2c(cc1OC)CN(C(=O)c1ccc(-c3ccccc3NC(=O)c3cccc(Cl)c3)o1)CC2 | 80.4 | 53 | 45
35 | COc1cc2c(cc1OC)CN(C(=O)c1ccc(-c3ccccc3NC(=O)c3ccccc3)o1)CC2 | 70.9 |  | 7.5
36 | COc1cc2c(cc1OC)CN(C(=O)c1ccc(-c3cccc(NC(=O)c4ccc(Cl)cc4)c3)o1)CC2 | 85.5 | 88.1 | 18
37 | COc1cc(OC)cc(C(=O)Nc2cccc(-c3ccc(C(=O)N4CCc5cc(OC)c(OC)cc5C4)o3)c2)c1 | 73.9 | 63 | 30.1
38 | COc1cc2c(cc1OC)CN(C(=O)c1ccc(-c3ccccc3NC(=O)c3ccc([N+](=O)[O-])cc3)o1)CC2 | 99.6 | 86.2 | 24.3
39 | COc1cc2c(cc1OC)CN(C(=O)c1ccc(-c3ccc(NC(=O)c4ccc(C(C)(C)C)cc4)cc3)o1)CC2 | 61.1 | 44.9 | 164
40 | COc1ccc(NC(=O)Nc2ccc(-c3ccc(C(=O)N4CCc5cc(OC)c(OC)cc5C4)o3)cc2)cc1 | 98.2 | 99.2 | 
41 | COc1ccc(-c2ccc(C(=O)N3CCc4cc(OC)c(OC)cc4C3)o2)cc1 | 94.1 |  | 9.1
42 | COc1cc2c(cc1OC)CN(C(=O)c1ccc(-c3ccc(NC(=O)c4ccc(-c5ccccc5)cc4)cc3)o1)CC2 | 95 | 98.7 | 17.1
43 | COc1cc2c(cc1OC)CN(C(=O)c1ccc(-c3cccc(NC(=O)c4ccccc4OC)c3)o1)CC2 | 65 | 53.6 | 44.2
44 | COc1cc2c(cc1OC)CN(C(=O)c1ccc(-c3ccc(NC(=O)c4ccc(Br)cc4)cc3)o1)CC2 | 96.3 | 97.2 | 48.4
